# Test results: ChEMBL document CHEMBL5576144, “Accelerated Discovery of Carbamate Cbl-b Inhibitors Using Generative AI Models and Structure-Based Drug Design” (J Med Chem, 2024)
# Columns and labels:
# [1] = Lipophilicity, logD of compound in octanol/aqueous buffer at pH 7.4 incubated for 2 hrs by shake flask method; assay type: physicochemical; conditions: for logD at 2 h: octanol/aqueous buffer, pH 7.4
# [2] = Intrinsic clearance in human liver microsome at 1 uM incubated for 30 mins in presence of NADPH by LC-MS/MS analysis; assay type: ADME, microsomes; conditions: for microsomal CLint at 1 µM: liver microsomes, read-out: CLH
# [3] = target: E3 ubiquitin-protein ligase CBL-B (Homo sapiens, UniProt Q13191); assay: Inhibition of Cbl-b (unknown origin) by TR-FRET assay
# Sequence of E3 ubiquitin-protein ligase CBL-B (Q13191 whole entry): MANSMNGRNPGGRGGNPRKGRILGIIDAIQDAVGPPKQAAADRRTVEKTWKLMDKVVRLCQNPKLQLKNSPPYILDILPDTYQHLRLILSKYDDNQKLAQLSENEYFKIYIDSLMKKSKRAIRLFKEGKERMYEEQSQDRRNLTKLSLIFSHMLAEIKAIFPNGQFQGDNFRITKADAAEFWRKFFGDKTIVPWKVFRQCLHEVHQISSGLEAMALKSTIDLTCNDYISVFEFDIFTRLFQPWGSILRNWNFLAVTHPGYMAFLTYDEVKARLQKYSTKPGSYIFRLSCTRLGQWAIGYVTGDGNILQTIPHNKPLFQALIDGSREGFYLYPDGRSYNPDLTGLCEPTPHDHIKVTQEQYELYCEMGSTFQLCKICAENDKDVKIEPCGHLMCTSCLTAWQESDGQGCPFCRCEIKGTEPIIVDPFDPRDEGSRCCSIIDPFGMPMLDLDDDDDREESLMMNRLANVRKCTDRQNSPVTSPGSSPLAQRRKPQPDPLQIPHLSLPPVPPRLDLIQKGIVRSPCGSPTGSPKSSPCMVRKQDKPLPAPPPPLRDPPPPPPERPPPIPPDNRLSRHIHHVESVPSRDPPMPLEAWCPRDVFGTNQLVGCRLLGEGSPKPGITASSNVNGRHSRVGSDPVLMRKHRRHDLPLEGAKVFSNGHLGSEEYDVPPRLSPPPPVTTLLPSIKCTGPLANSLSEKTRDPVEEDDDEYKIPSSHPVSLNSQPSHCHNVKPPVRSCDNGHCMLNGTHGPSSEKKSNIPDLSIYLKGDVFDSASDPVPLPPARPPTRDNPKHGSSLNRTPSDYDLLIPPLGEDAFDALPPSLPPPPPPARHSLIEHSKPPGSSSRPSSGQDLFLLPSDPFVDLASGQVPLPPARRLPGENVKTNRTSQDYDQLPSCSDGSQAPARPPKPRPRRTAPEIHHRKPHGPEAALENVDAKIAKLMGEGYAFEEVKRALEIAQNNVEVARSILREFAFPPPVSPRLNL
SMILES,logD at 2 h [1],microsomal CLint at 1 µM [2],IC50 [3],"logD ([1]; octanol/water, pH 7.4, 2 h, 2 h)","CLH ([2]; microsomes, 0.5 h, 1 µM)"
C[C@H]1CCCN(Cc2cc3c(c(C(F)(F)F)c2)CN(c2cccc([C@]4(c5nncn5C)C[C@@H](C)C4)c2)C3=O)C1,4,130 µL/min/mg,,,
CNC(=O)[C@]1(c2cccc(-n3nc4c(C(F)(F)F)cc(CN5CCC[C@H](C)C5)cn4c3=O)c2)C[C@H](C)C1,4.3,> 300 µL/min/mg,6.5 µM,,
O=C1NCC[C@@](c2cccc(-c3cc(C(F)(F)F)c[nH]c3=O)c2)(C2CC2)O1,2.1,35 µL/min/mg,8.2 µM,,
C[C@H]1CCCN(Cc2cc(C(F)(F)F)c3nn(-c4cccc([C@@]5(C)CCNC(=O)C5)c4)c(=O)n3c2)C1,3.4,230 µL/min/mg,37 µM,,
C[C@H]1CCCN(Cc2cc(C(F)(F)F)c3nn(-c4cccc([C@@]5(C6CC6)CCNC(=O)O5)c4)c(=O)n3c2)C1,3.8,> 300 µL/min/mg,7.8 µM,,
CC[C@]1(c2cccc(NC(=O)c3cc(C)nc(C4CC4)n3)c2)CCNC(=O)O1,2.9,54 µL/min/mg,> 100 µM,,
C[C@H]1CCCN(Cc2cc(C(F)(F)F)c3nn(-c4cccc(C5(C)CC(=O)NC(=O)C5)c4)c(=O)n3c2)C1,3.2,> 300 µL/min/mg,6.6 µM,,
CC1CC(c2cccc(-n3nc4c(C(F)(F)F)cc(CN5CCC[C@H](C)C5)cn4c3=O)c2)(n2cccn2)C1 (some centres not stated),5.3,> 300 µL/min/mg,> 10 µM,,
C[C@H]1CCCN(Cc2cc(C(F)(F)F)c3nn(-c4cccc([C@]5(c6nncn6C)C[C@@H](C)C5)c4)c(=O)n3c2)C1,3.9,160 µL/min/mg,0.011 µM,,
C[C@H]1CCCN(Cc2cc(C(F)(F)F)c3nn(-c4cccc([C@]5(C6CC6)CCNC(=O)O5)c4)c(=O)n3c2)C1,3.7,260 µL/min/mg,0.007 µM,,
Cc1cc(C(=O)Nc2cccc([C@]3(C)CCNC(=O)C3)c2)nc(C2CC2)n1,2.7,34 µL/min/mg,28 µM,,
Cc1cc(C(=O)Nc2cccc([C@]3(c4nncn4C)C[C@@H](C)C3)c2)nc(C2CC2)n1,3.2,35 µL/min/mg,0.16 µM,,
O=C1NCC[C@](c2cccc(-c3cc(C(F)(F)F)c[nH]c3=O)c2)(C2CC2)O1,2.2,18 µL/min/mg,0.091 µM,,
Cc1cc(C(=O)Nc2cccc([C@]3(C4CC4)CCNC(=O)O3)c2)nc(C2CC2)n1,3,25 µL/min/mg,0.17 µM,,
Cc1cc(C(=O)Nc2cccc([C@@]3(C)CCNC(=O)C3)c2)nc(C2CC2)n1,2.7,23 µL/min/mg,33 µM,,
Cc1cc(C(=O)Nc2cccc([C@@]3(C4CC4)CCNC(=O)O3)c2)nc(C2CC2)n1,3,61 µL/min/mg,> 100 µM,,
Cc1cc(C(=O)Nc2cccc([C@@]3(C)CCNC(=O)O3)c2)nc(C2CC2)n1,2.4,7.7 µL/min/mg,> 100 µM,,
Cc1cc(C(=O)Nc2cccc([C@]3(C)CCNC(=O)O3)c2)nc(C2CC2)n1,2.5,5.9 µL/min/mg,4.8 µM,,
Cn1cnnc1[C@]1(c2cccc(-n3nc4c(C(F)(F)F)cccn4c3=O)c2)C[C@H](C)C1,2.7,48 µL/min/mg,0.23 µM,,
C[C@H]1CCCN(Cc2cc(C(F)(F)F)c3nn(-c4cccc([C@]5(C)CCNC(=O)C5)c4)c(=O)n3c2)C1,3.5,170 µL/min/mg,1.2 µM,,
CC[C@@]1(c2cccc(NC(=O)c3cc(C)nc(C4CC4)n3)c2)CCNC(=O)O1,3,27 µL/min/mg,1.4 µM,,
C[C@H]1CCCN(Cc2cc(C(F)(F)F)c3nn(-c4cccc([C@]5(C(=O)N(C)C)C[C@@H](C)C5)c4)c(=O)n3c2)C1,4.9,> 300 µL/min/mg,2.1 µM,,
Cc1cc(C(=O)Nc2cccc(C3(C)CCNC(=O)N3C)c2)nc(C2CC2)n1 (racemic),2.7,75 µL/min/mg,> 100 µM,,
Cc1cc(C(=O)Nc2cccc(C3(C)CCNC(=O)N3)c2)nc(C2CC2)n1 (racemic),2.4,6.6 µL/min/mg,> 100 µM,,
"Cc1cc(C(=O)Nc2cccc(C3(C)CNC(=O)O3)c2)nc(C2CC2)n1 (single isomer, unassigned; 14)",2.7,16 µL/min/mg,> 100 µM,,
"Cc1cc(C(=O)Nc2cccc(C3(C)CNC(=O)O3)c2)nc(C2CC2)n1 (single isomer, unassigned; 15)",,,> 100 µM,2.6,10 µL/min/mg
